System: H9c2
Experiment: Cytoprotective activity against tBOOH-induced oxidative stress in rat H9c2 cells after 2 hrs by SRB assay
Assay type: functional, cell-based
Settings: H9c2, 2 h

SMILES | IC50 [nM]
c1ccc(-c2nc3cccc(NC4CCOC4)c3[nH]2)cc1 (configuration not stated) | 2000
c1ccc(-c2nc3cccc(NC4CCCC4)c3[nH]2)cc1 | 600
